In patent US20080255192A1, “Methods and Compositions for Selectin Inhibition” (Wyeth, priority 2007, published 2008):

biological target: T1, P-selectin/PSGL-1 interaction (Homo sapiens, UniProt P16109); assay: Biacore P-Selectin/PSGL-1 Inhibition Assay (surface plasmon resonance); format: binding; conditions: 250 uM test compound, 500 nM P.LE, immobilized PSGL-1 19ek, 10% DMSO, pH 7.4
T1 construct: comprised of the lectin and epidermal growth factor-like (EGF) domains expressed in CHO cells; made in house; host or cells: CHO cells (P-LE)
T1 sequence (P16109 42-198): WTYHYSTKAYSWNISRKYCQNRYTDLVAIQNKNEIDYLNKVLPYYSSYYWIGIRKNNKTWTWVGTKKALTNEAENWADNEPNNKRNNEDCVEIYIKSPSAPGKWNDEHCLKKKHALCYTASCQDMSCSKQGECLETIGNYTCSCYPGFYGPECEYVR
Method in brief: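 Biotinylated monomeric human PSGL-1 "19ek" on streptavidin chip (600–700 RU); compounds preincubated 1 h, then mixed with 500 nM P-LE (lectin-EGF, CHO-expressed) at 250 or 500 μM compound, 10% DMSO, HEPES buffer with 1 mM CaCl2/MgCl2, pH 7.4. SPR at 25 °C; percent binding inhibition from double-referenced signals.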

| inhibition at 250 µM | SMILES |
| --- | --- |
| 55% | CC(C)(c1ccccc1)c1nc2c(C(F)(F)F)cccc2c(C(=O)O)c1O [Compound 117, 3-hydroxy-2-(2-phenylpropan-2-yl)-8-(trifluoromethyl)quinoline-4-carboxylic acid] |
| ≤ 10% | CC(C)c1cccc2c(C(=O)O)c(O)c(C(C)(C)c3ccc(Cl)cc3)nc12 [Compound 118, 2-(2-(4-Chlorophenyl)propan-2-yl)-3-hydroxy-8-isopropylquinoline-4-carboxylic acid] |
| ≤ 10% | CC(C)(c1ccc(Cl)cc1)c1nc2c(C(F)(F)F)cccc2c(C(=O)O)c1O [Compound 119, 2-(2-(4-Chlorophenyl)propan-2-yl)-3-hydroxy-8-(trifluoromethyl)quinoline-4-carboxylic acid] |
| ≤ 10% | CC(C)(c1ccc(Cl)cc1)c1nc2c3c(ccc2c(C(=O)O)c1O)CCCC3 [Compound 120, 2-(2-(4-Chlorophenyl)propan-2-yl)-3-hydroxy-7,8,9,10-tetrahydrobenzo[h]quinoline-4-carboxylic acid] |
| 56% | Cc1ccc2c(C(=O)O)c(O)c(C(C)(C)c3ccc(Cl)cc3)nc2c1C [Compound 121, 2-(2-(4-Chlorophenyl)propan-2-yl)-3-hydroxy-7,8-dimethylquinoline-4-carboxylic acid] |
| ≤ 10% | CC(C)(c1ccc(Cl)cc1)c1nc2c(C(O)(C(F)(F)F)C(F)(F)F)cccc2c(C(=O)O)c1O [Compound 122, 2-(2-(4-chlorophenyl)propan-2-yl)-8-(1,1,1,3,3,3-hexafluoro-2-hydroxypropan-2-yl)-3-hydroxyquinoline-4-carboxylic acid] |
| 49% | CC(c1ccccc1)c1nc2c(C(F)(F)F)cccc2c(C(=O)O)c1O (centres unmarked) [Compound 123, 3-hydroxy-2-(1-phenylethyl)-8-(trifluoromethyl)quinoline-4-carboxylic acid] |
| ≤ 10% | CC(c1ccc(Cl)cc1)c1nc2c3c(ccc2c(C(=O)O)c1O)CCCC3 (centres unmarked) [Compound 124, 2-(1-(4-chlorophenyl)ethyl)-3-hydroxy-7,8,9,10-tetrahydrobenzo[h]quinoline-4-carboxylic acid] |
| 90% | CC(c1ccccc1)c1nc2c3c(ccc2c(C(=O)O)c1O)CCCC3 (centres unmarked) [Compound 125, 3-Hydroxy-2-(1-phenylethyl)-7,8,9,10-tetrahydrobenzo[h]quinoline-4-carboxylic acid] |
| 61% | CCC(c1ccccc1)c1nc2c(C(F)(F)F)cccc2c(C(=O)O)c1O (centres unmarked) [Compound 126, 3-Hydroxy-2-(1-phenylpropyl)-8-(trifluoromethyl)quinoline-4-carboxylic acid] |
| 65% | CCC(c1ccccc1)c1nc2c(C(C)C)cccc2c(C(=O)O)c1O (centres unmarked) [Compound 127, 3-Hydroxy-8-isopropyl-2-(1-phenylpropyl)quinoline-4-carboxylic acid] |
| 64% | CCC(c1ccccc1)c1nc2c(C)c(C)ccc2c(C(=O)O)c1O (centres unmarked) [Compound 128, 3-Hydroxy-7,8-dimethyl-2-(1-phenylpropyl)quinoline-4-carboxylic acid] |
| 60% | CC(C)C(c1ccccc1)c1nc2c(C(F)(F)F)cccc2c(C(=O)O)c1O (centres unmarked) [Compound 129, 3-Hydroxy-2-(2-methyl-1-phenylpropyl)-8-(trifluoromethyl)quinoline-4-carboxylic acid] |
| 40% | CC(C)c1cccc2c(C(=O)O)c(O)c(C(c3ccccc3)C(C)C)nc12 (centres unmarked) [Compound 130, 3-Hydroxy-8-isopropyl-2-(2-methyl-1-phenylpropyl)quinoline-4-carboxylic acid] |
| 90% | Cc1ccc2c(C(=O)O)c(O)c(C(c3ccccc3)C(C)C)nc2c1C (centres unmarked) [Compound 131, 3-Hydroxy-7,8-dimethyl-2-(2-methyl-1-phenylpropyl)quinoline-4-carboxylic acid] |
| 49% | CC(Cc1ccccc1)c1nc2c(C(F)(F)F)cccc2c(C(=O)O)c1O (centres unmarked) [Compound 132, 3-Hydroxy-2-(1-Phenylpropan-2-yl)-8-(trifluoromethyl)quinoline-4-carboxylic acid] |
| 64% | CC(C)c1cccc2c(C(=O)O)c(O)c(C(C)Cc3ccccc3)nc12 (centres unmarked) [Compound 133, 3-Hydroxy-8-isopropyl-2-(1-phenylpropan-2-yl)quinoline-4-carboxylic acid] |
| 49% | Cc1ccc2c(C(=O)O)c(O)c(C(C)Cc3ccccc3)nc2c1C (centres unmarked) [Compound 134, 3-Hydroxy-7,8-dimethyl-2-(1-phenylpropan-2-yl)quinoline-4-carboxylic acid] |
| 46% | CC(Cc1nc2c(C(F)(F)F)cccc2c(C(=O)O)c1O)c1ccccc1 (centres unmarked) [Compound 135, 3-Hydroxy-2-(2-phenylpropyl)-8-(trifluoromethyl)quinoline-4-carboxylic acid] |
| 64% | CC(C)c1cccc2c(C(=O)O)c(O)c(CC(C)c3ccccc3)nc12 (centres unmarked) [Compound 136, 3-Hydroxy-8-isopropyl-2-(2-phenylpropyl)quinoline-4-carboxylic acid] |
| 31% | Cc1ccc2c(C(=O)O)c(O)c(CC(C)c3ccccc3)nc2c1C (centres unmarked) [Compound 137, 3-Hydroxy-7,8-dimethyl-2-(2-phenylpropyl)quinoline-4-carboxylic acid] |

The next lines start with the compound.

| SMILES | inhibition at 250 µM |
| --- | --- |
| O=C(O)c1c(O)c(C2(c3ccc(Cl)cc3)CC2)nc2c(-c3ccccc3)cc(C(F)(F)F)cc12 [Compound 100, 2-(1-(4-chlorophenyl)cyclopropyl)-3-hydroxy-8-phenyl-6-(trifluoromethyl)quinoline-4-carboxylic acid] | ≤ 10% |
| Cc1cc(C(F)(F)F)c2nc(C3(c4ccccc4)CC3)c(O)c(C(=O)O)c2c1 [Compound 101, 3-hydroxy-6-methyl-2-(1-phenylcyclopropyl)-8-(trifluoromethyl)quinoline-4-carboxylic acid] | 40% |
| O=C(O)c1c(O)c(C2(c3ccccc3)CC2)nc2c(C(F)(F)F)cc(-c3ccccc3)cc12 [Compound 102, 3-hydroxy-6-phenyl-2-(1-Phenylcyclopropyl)-8-(trifluoromethyl)quinoline-4-carboxylic acid] | ≤ 10% |
| O=C(O)c1c(O)c(C2(c3ccc(Cl)cc3)CC2)nc2c(C(F)(F)F)cc(Br)cc12 [Compound 103, 6-bromo-2-(1-(4-chlorophenyl)cyclopropyl)-3-hydroxy-8-(trifluoromethyl)quinoline-4-carboxylic acid] | ≤ 10% |
| CCc1cc(C(F)(F)F)c2nc(C3(c4ccccc4)CC3)c(O)c(C(=O)O)c2c1 [Compound 104, 6-ethyl-3-hydroxy-2-(1-phenylcyclopropyl)-8-(trifluoromethyl)quinoline-4-carboxylic acid] | 40% |
| O=C(O)c1c(O)c(C2(c3ccc(Cl)cc3)CC2)nc2c(C(F)(F)F)cc(C(F)(F)F)cc12 [Compound 105, 3-hydroxy-2-(1-(4-chlorophenyl)cyclopropyl)-6,8-bis(trifluoromethyl)quinoline-4-carboxylic acid] | ≤ 10% |
| O=C(O)c1c(O)c(C2(c3ccccc3)CC2)nc2c(C(F)(F)F)cc(C(F)(F)F)cc12 [Compound 106] | 41% |
| O=C(O)c1c(O)c(C2(c3ccccc3)CC2)nc2c(C(F)(F)F)cc(Br)cc12 [Compound 107, 6-bromo-3-hydroxy-2-(1-phenylcyclopropyl)-8-(trifluoromethyl)quinoline-4-carboxylic acid] | 41% |
| O=C(O)c1c(O)c(C2(c3ccc(Cl)cc3)CC2)nc2c(C(=O)O)cccc12 [Compound 108, 2-(1-(4-chlorophenyl)cyclopropyl)-3-hydroxyquinoline-4,8-dicarboxylic acid] | 12% |
| O=C(O)c1c(O)c(C2(c3ccc(Cl)cc3)CC2)nc2c(C3CC3)cccc12 [Compound 109, 2-[1-(4-chloro-phenyl)-cyclopropyl]-8-cyclopropyl-3-hydroxy-quinoline-4-carboxylic acid] | 57% |
| O=C(O)c1c(O)c(C2(c3ccccc3)CC2)nc2c(C3CC3)cccc12 [Compound 110, 8-cyclopropyl-3-hydroxy-2-(1-phenyl-cyclopropyl)-quinoline-4-carboxylic acid] | 13% |
| O=C(O)c1c(O)c(CC2(c3ccccc3)CC2)nc2c(C(F)(F)F)cccc12 [Compound 111, 3-hydroxy-2-(1-phenyl-cyclopropylmethyl)-8-trifluoromethyl-quinoline-4-carboxylic acid] | 46% |
| O=C(O)c1c(O)c(C2(Cc3ccccc3)CC2)nc2c(C(F)(F)F)cccc12 [Compound 112, 2-(1-benzyl-cyclopropyl)-3-hydroxy-8-trifluoromethyl-quinoline-4-carboxylic acid] | 43% |
| Cc1ccc(C2(c3nc4c(C)c(C)ccc4c(C(=O)O)c3O)CC2)cc1 [Compound 113, 3-hydroxy-7,8-dimethyl-2-(1-p-tolyl-cyclopropyl)-quinoline-4-carboxylic acid] | 24% |
| CC(C)(c1ccccc1)c1nc2c3c(ccc2c(C(=O)O)c1O)CCCC3 [Compound 114, 3-hydroxy-2-(2-phenylpropan-2-yl)-7,8,9,10-tetrahydrobenzo[h]quinoline-4-carboxylic acid] | 69% |
| Cc1ccc2c(C(=O)O)c(O)c(C(C)(C)c3ccccc3)nc2c1C [Compound 115, 3-hydroxy-7,8-dimethyl-2-(2-phenylpropan-2-yl)quinoline-4-carboxylic acid] | 60% |
| CC(C)c1cccc2c(C(=O)O)c(O)c(C(C)(C)c3ccccc3)nc12 [Compound 116, 3-hydroxy-8-isopropyl-2-(2-phenylpropan-2-yl)quinoline-4-carboxylic acid] | 68% |
